Measurements published in ChEMBL document CHEMBL5321279 (J Med Chem, 2023).
Values after ≈ are worked out from the molar mass of the structure shown.

Legend:
[1] = Lipophilicity, logD of compound; format: physicochemical; details: octanol/water
[2] = Apparent permeability of the compound from apical to basolateral side in human Caco-2 cells incubated for 2 hrs by LC-MS/MS analysis; format: ADME, cell-based; details: for Papp A→B at 2 h: Caco-2
[3] = Efflux ratio of permeability in human Caco-2 cells from basolateral to apical side over apical to basolateral side in human Caco-2 cells incubated for 2 hrs by LC-MS/MS analysis; format: ADME, cell-based; details: caco-2, 2 h
[4] = Thermodynamic aqueous solubility at pH 2 measured at 72 hrs by UPLC analysis; format: physicochemical; details: aqueous solution, read-out: Therm_solubility
[5] = Thermodynamic aqueous solubility at pH 7 measured at 24 hrs by UPLC analysis; format: physicochemical; details: aqueous solution, read-out: Therm_solubility
[6] = Aqueous stability of the compound assessed as compound remaining at pH 2 measured at 24 hrs by UPLC analysis; format: physicochemical; details: aqueous solution, read-out: Stability
[7] = Aqueous stability of the compound assessed as compound remaining at pH 7 measured at 24 hrs by UPLC analysis; format: physicochemical; details: aqueous solution, read-out: Stability
[8] = Stability of compound in rat gastrointestinal S9 fraction assessed as half life at pH 7.4 measured upto 120 mins by LC-MS/MS analysis; format: ADME, subcellular, Gastrointestinal tract
[9] = Stability of compound in dog gastrointestinal S9 fraction assessed as half life at pH 7.4 measured upto 120 mins by LC-MS/MS analysis; format: ADME, subcellular, Canis lupus familiaris, Gastrointestinal tract
[10] = Stability of compound in cynomolgus monkey gastrointestinal S9 fraction assessed as half life at pH 7.4 measured upto 120 mins by LC-MS/MS analysis; format: ADME, subcellular, Macaca fascicularis, Gastrointestinal tract
[11] = Stability of compound in human gastrointestinal S9 fraction assessed as half life at pH 7.4 measured upto 120 mins by LC-MS/MS analysis; format: ADME, subcellular, Gastrointestinal tract
[12] = Stability of compound in rat plasma assessed as half life measured upto 4 hrs by LC-MS/MS analysis; format: ADME, cell-free
[13] = Stability of compound in dog plasma assessed as half life measured upto 4 hrs by LC-MS/MS analysis; format: ADME, cell-free, Canis lupus familiaris
[14] = Stability of compound in cynomolgus monkey plasma assessed as half life measured upto 4 hrs by LC-MS/MS analysis; format: ADME, cell-free, Macaca fascicularis
[15] = Stability of compound in human plasma assessed as half life measured upto 4 hrs by LC-MS/MS analysis; format: ADME, cell-free
[16] = Stability of compound in rat liver S9 fraction assessed as half life at pH 7.4 measured upto 90 mins by LC-MS/MS analysis; format: ADME, subcellular
[17] = Stability of compound in dog liver S9 fraction assessed as half life at pH 7.4 measured upto 90 mins by LC-MS/MS analysis; format: ADME, subcellular, Canis lupus familiaris
[18] = Stability of compound in cynomolgus monkey liver S9 fraction assessed as half life at pH 7.4 measured upto 90 mins by LC-MS/MS analysis; format: ADME, subcellular, Macaca fascicularis
[19] = Stability of compound in human liver S9 fraction assessed as half life at pH 7.4 measured upto 90 mins by LC-MS/MS analysis; format: ADME, subcellular
[20] = Cmax in ferret infected with SARS-CoV-2 assessed as prodrug conversion by measuring (2R,3R,4S,5R)-2-(4-aminopyrrolo[2,1-f][1,2,4]triazin-7-yl)-3,4-dihydroxy-5-(hydroxymethyl)tetrahydrofuran-2-carbonitrile at 10 mg/kg, po BID measured after 4 days by LC-MS/MS analysis; format: ADME, organism-based, Mustela putorius furo; design: time 4 day, dose 10 mg/kg, route po; details: in vivo, 96 h
[21] = AUC(0 to 24 hrs) in ferret infected with SARS-CoV-2 assessed as prodrug conversion by measuring (2R,3R,4S,5R)-2-(4-aminopyrrolo[2,1-f][1,2,4]triazin-7-yl)-3,4-dihydroxy-5-(hydroxymethyl)tetrahydrofuran-2-carbonitrile at 10 mg/kg, po BID measured after 4 days by LC-MS/MS analysis; format: ADME, organism-based, Mustela putorius furo; design: dose 10 mg/kg, time 4 day, route po; details: in vivo, 96 h
[22] = Prodrug conversion in SARS-CoV-2 infected in ferret assessed as (2R,3R,4S,5R)-2-(4-aminopyrrolo[2,1-f][1,2,4]triazin-7-yl)-3,4-dihydroxy-5-(hydroxymethyl)tetrahydrofuran-2-carbonitrile mediated log10 reduction of genomic RNA at 10 mg/kg, po BID measured after 4 days by RT-qPCR analysis; format: ADME, organism-based, Mustela putorius furo; details: in vivo, 96 h, time 4 day
[23] = Cmax in mouse infected with SARS-CoV-2 assessed as prodrug conversion by measuring (2R,3R,4S,5R)-2-(4-aminopyrrolo[2,1-f][1,2,4]triazin-7-yl)-3,4-dihydroxy-5-(hydroxymethyl)tetrahydrofuran-2-carbonitrile at 30 mg/kg, po BID measured after 4 days by LC-MS/MS analysis; format: ADME, organism-based; design: dose 30 mg/kg, time 4 day, route po; details: in vivo, 96 h
[24] = AUC(0 to 24 hrs) in SARS-CoV-2 infected mouse assessed as prodrug conversion (2R,3R,4S,5R)-2-(4-aminopyrrolo[2,1-f][1,2,4]triazin-7-yl)-3,4-dihydroxy-5-(hydroxymethyl)tetrahydrofuran-2-carbonitrile at 30 mg/kg, po BID measured after 4 days by LC-MS/MS analysis; format: ADME, organism-based; design: dose 30 mg/kg, time 4 day, route po; details: in vivo, 96 h
[25] = Prodrug conversion in SARS-CoV-2 infected in mouse assessed as (2R,3R,4S,5R)-2-(4-aminopyrrolo[2,1-f][1,2,4]triazin-7-yl)-3,4-dihydroxy-5-(hydroxymethyl)tetrahydrofuran-2-carbonitrile mediated log10 reduction of genomic RNA in lung at 30 mg/kg, po BID measured after 4 days by RT-qPCR analysis; format: ADME, organism-based; details: in vivo, 96 h, time 4 day
[26] = Lipophilicity, logP of compound; format: physicochemical; details: octanol/water
[27] = tested on: MT4; test: Cytotoxicity against human MT4 cells assessed as reduction in cell growth measured after 5 days by CellTiter-Glo assay; format: toxicity, cell-based; details: mt4, 120 h, time 5 day
[28] = tested on: PC-3; test: Cytotoxicity against human PC-3 cells assessed as reduction in cell growth measured after 5 days by CellTiter-Glo assay; format: toxicity, cell-based; details: pc-3, 120 h, time 5 day
[29] = tested on: HepG2; test: Cytotoxicity against human HepG2 cells assessed as reduction in cell growth measured after 5 days by CellTiter-Glo assay; format: toxicity, cell-based; details: hepg2, 120 h, time 5 day
[30] = tested on: Huh-7; test: Cytotoxicity against human Huh-7 cells assessed as reduction in cell growth measured after 5 days by CellTiter-Glo assay; format: toxicity, cell-based; details: huh-7, 120 h, time 5 day
[31] = tested on: MRC5; test: Cytotoxicity against human MRC5 cells assessed as reduction in cell growth measured after 5 days by CellTiter-Glo assay; format: toxicity, cell-based; details: mrc5, 120 h, time 5 day
[32] = Cytotoxicity against human NHBE-T cells assessed as reduction in cell growth measured after 5 days by CellTiter-Glo assay; format: toxicity, cell-based; details: nhbe-t, 120 h, time 5 day
[33] = tested on: PBMC; test: Cytotoxicity against quiescent human PBMC cells assessed as reduction in cell growth measured after 5 days by CellTiter-Glo assay; format: toxicity, cell-based; details: pbmc, 120 h, time 5 day
[34] = tested on: PBMC; test: Cytotoxicity against stimulated human PBMC cells assessed as reduction in cell growth measured after 5 days by CellTiter-Glo assay; format: toxicity, cell-based; details: pbmc, 120 h, time 5 day
[35] = tested on: Hepatocyte; test: Cytotoxicity against human primary hepatocytes assessed as reduction in cell growth measured after 5 days by CellTiter-Glo assay; format: toxicity, cell-based; details: hepatocytes, 120 h, time 5 day

Structure (SMILES) | logD [1] | Papp A→B at 2 h [2] [×10⁻⁶ cm/s] | Ratio [3] | solubility thermodynamic at 72 h [4] [µg/mL] | solubility thermodynamic at 24 h [5] [µg/mL] | remaining at 24 h [6] [%] | remaining at 24 h [7] [%] | half-life [8] [min] | half-life [9] [min] | half-life [10] [min] | half-life [11] [min] | half-life [12] [min] | half-life [13] [min] | half-life [14] [min] | half-life [15] [min] | half-life at […] [16] [min] | half-life at […] [17] [min] | half-life at […] [18] [min] | half-life at […] [19] [min] | also measured
CC(=O)OC[C@H]1O[C@@](C#N)(c2ccc3c(N)ncnn23)[C@H](OC(C)=O)[C@@H]1OC(C)=O | 1.5 | 4 | 3 | ≥ 40000 | 1400 (≈ 3.35 mM) | 82 | 79 | > 2 | 16 | < 2 | < 2 | < 2 | 111 | 9.2 | 4.7 | < 2 | < 2 | < 2 | < 2 | –
CC(C)C(=O)OC[C@H]1O[C@@](C#N)(c2ccc3c(N)ncnn23)[C@H](OC(=O)C(C)C)[C@@H]1OC(=O)C(C)C | 3.5 | – | < 1 | 600 (≈ 1.2 mM) | < 10 | ≥ 96 | ≥ 98 | > 2 | < 2 | < 2 | < 2 | < 2 | 182 | 7.2 | 5.5 | 2.9 | < 2 | < 2 | < 2 | Papp ([2]; caco-2, 2 h): 22 10^-6 cm/s; Cmax [20]: 5 µM; AUC [21]: 54 µM·h; log(activity) [22]: -1.98; Cmax [23]: 13 µM; AUC [24]: 95 µM·h; log(activity) [25]: -3.29
CC(=O)OC[C@H]1O[C@@](C#N)(c2ccc3c(N)ncnn23)[C@H](O)[C@@H]1O | < 0.3 | 1.4 | 0.5 | – | 1000 (≈ 3 mM) | 89 | 96 | > 2 | 226 | 38 | 28 | 3 | 564 | 146 | 70 | 10 | 25 | 5.3 | 19 | –
[N-]=[N+]=N[C@]1(CO)O[C@@H](n2ccc(N)nc2=O)[C@H](O)[C@@H]1O [4'-AZIDOCYTIDINE] | – | – | – | – | – | – | – | – | – | – | – | – | – | – | – | – | – | – | – | logP [26]: > 2
COc1ccc(C[C@H](N)C(=O)N[C@H]2[C@@H](O)[C@H](n3cnc4c(N(C)C)ncnc43)O[C@@H]2CO)cc1 [PUROMYCIN] | – | – | – | – | – | – | – | – | – | – | – | – | – | – | – | – | – | – | – | CC50 [27]: 0.12 µM; CC50 [28]: 0.47 µM; CC50 [29]: 0.78 µM; CC50 [30]: 0.43 µM; CC50 [31]: 0.32 µM; CC50 [32]: 0.6 µM; CC50 [33]: 5.05 µM; CC50 [34]: 1.1 µM; CC50 [35]: 1.1 µM
